In PubChem BioAssay AID248 (DTP/NCI, 2004):
Values joined by “and” are separate entries in the source; they are usually repeats but may differ in a detail not shown here. Equal values may be shown once. Inconclusive results and toxic doses are left out. No stated cut-off is given here; in the data, active means T/C of 150% or more; inactive means T/C below 125%.

System: L1210 leukemia ip in BDF1 mice, survival T/C
Experiment: NCI In Vivo Anticancer Drug Screen. Data for tumor model L1210 Leukemia (intraperitoneal) in B6D2F1 (BDF1) mice
Details: endpoint: mean survival time, higher = longer survival
Summary of the method: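 Read-out is survival time, reported as the treated-group measurement over the vehicle-control measurement.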

[1] = dose: 25.0 mg/kg/injection, schedule: Q01DX009 (ip), vehicle: Klucel (hydroxypropylcellulose) (HPC)
[2] = dose: 50.0 mg/kg/injection, schedule: Q01DX009 (ip), vehicle: Klucel (hydroxypropylcellulose) (HPC)
[3] = dose: 100.0 mg/kg/injection, schedule: Q01DX001 (ip), vehicle: Klucel (hydroxypropylcellulose) (HPC)
[4] = dose: 100.0 mg/kg/injection, schedule: Q04DX003 (ip), vehicle: Klucel (hydroxypropylcellulose) (HPC)
[5] = dose: 200.0 mg/kg/injection, schedule: Q01DX001 (ip), vehicle: Klucel (hydroxypropylcellulose) (HPC)
[6] = dose: 200.0 mg/kg/injection, schedule: Q04DX003 (ip), vehicle: Klucel (hydroxypropylcellulose) (HPC)
[7] = dose: 400.0 mg/kg/injection, schedule: Q01DX001 (ip), vehicle: Klucel (hydroxypropylcellulose) (HPC)
[8] = dose: 400.0 mg/kg/injection, schedule: Q04DX003 (ip), vehicle: Klucel (hydroxypropylcellulose) (HPC)
[9] = dose: 100.0 mg/kg/injection, schedule: Q01DX009 (ip), vehicle: Klucel (hydroxypropylcellulose) (HPC)
[10] = dose: 200.0 mg/kg/injection, schedule: Q01DX009 (ip), vehicle: Klucel (hydroxypropylcellulose) (HPC)
[11] = dose: 400.0 mg/kg/injection, schedule: Q01DX009 (ip), vehicle: Klucel (hydroxypropylcellulose) (HPC)
[12] = dose: 100.0 mg/kg/injection, schedule: Q01DX009 (ip), vehicle: saline with Tween-80
[13] = dose: 100.0 mg/kg/injection, schedule: Q04DX002 (ip), vehicle: saline with Tween-80
[14] = dose: 200.0 mg/kg/injection, schedule: Q01DX009 (ip), vehicle: saline with Tween-80
[15] = dose: 200.0 mg/kg/injection, schedule: Q04DX002 (ip), vehicle: saline with Tween-80
[16] = dose: 400.0 mg/kg/injection, schedule: Q04DX002 (ip), vehicle: saline with Tween-80
[17] = dose: 100.0 mg/kg/injection, schedule: Q04DX003 (ip), vehicle: saline
[18] = dose: 200.0 mg/kg/injection, schedule: Q04DX003 (ip), vehicle: saline
[19] = dose: 400.0 mg/kg/injection, schedule: Q04DX003 (ip), vehicle: saline

Measured: T/C

C/C(=C\c1ccccc1)[N+](=O)[O-]
inactive: dose: 1.0 mg/kg/injection, schedule: Q04DX003 (ip), vehicle: Klucel (hydroxypropylcellulose) (HPC) 106 % of control | dose: 4.0 mg/kg/injection, schedule: Q01DX009 (ip), vehicle: Klucel (hydroxypropylcellulose) (HPC) 104 % of control | dose: 8.0 mg/kg/injection, schedule: Q01DX009 (ip), vehicle: Klucel (hydroxypropylcellulose) (HPC) 89 % of control | dose: 12.5 mg/kg/injection, schedule: Q01DX009 (ip), vehicle: Klucel (hydroxypropylcellulose) (HPC) 98 % of control | dose: 12.5 mg/kg/injection, schedule: Q04DX003 (ip), vehicle: Klucel (hydroxypropylcellulose) (HPC) 101 % of control | dose: 16.0 mg/kg/injection, schedule: Q01DX009 (ip), vehicle: Klucel (hydroxypropylcellulose) (HPC) 107 % of control | dose: 20.0 mg/kg/injection, schedule: Q04DX003 (ip), vehicle: Klucel (hydroxypropylcellulose) (HPC) 101 % of control | [1] 102 % of control and 104 % of control | dose: 25.0 mg/kg/injection, schedule: Q04DX003 (ip), vehicle: Klucel (hydroxypropylcellulose) (HPC) 116 % of control | dose: 32.0 mg/kg/injection, schedule: Q01DX009 (ip), vehicle: Klucel (hydroxypropylcellulose) (HPC) 100 % of control | dose: 40.0 mg/kg/injection, schedule: Q04DX003 (ip), vehicle: Klucel (hydroxypropylcellulose) (HPC) 95 % of control | [2] 101 % of control and 113 % of control | dose: 50.0 mg/kg/injection, schedule: Q04DX003 (ip), vehicle: Klucel (hydroxypropylcellulose) (HPC) 106 % of control | dose: 64.0 mg/kg/injection, schedule: Q01DX009 (ip), vehicle: Klucel (hydroxypropylcellulose) (HPC) 110 % of control | dose: 80.0 mg/kg/injection, schedule: Q04DX003 (ip), vehicle: Klucel (hydroxypropylcellulose) (HPC) 100 % of control

O=C(NCCc1ccccc1)Nc1ccccc1
inactive: dose: 75.0 mg/kg/injection, schedule: Q01DX009 (ip), vehicle: saline with Tween-80 100 % of control | dose: 75.0 mg/kg/injection, schedule: Q04DX003 (ip), vehicle: saline with Tween-80 92 % of control | dose: 150.0 mg/kg/injection, schedule: Q01DX009 (ip), vehicle: saline with Tween-80 90 % of control | dose: 150.0 mg/kg/injection, schedule: Q04DX003 (ip), vehicle: saline with Tween-80 91 % of control | dose: 300.0 mg/kg/injection, schedule: Q01DX009 (ip), vehicle: saline with Tween-80 88 % of control | dose: 300.0 mg/kg/injection, schedule: Q04DX003 (ip), vehicle: saline with Tween-80 89 % of control

CC(C)(C)C(=O)[CH-]C(=O)C(C)(C)C.CC(C)(C)C(=O)[CH-]C(=O)C(C)(C)C.CC(C)(C)C(=O)[CH-]C(=O)C(C)(C)C.CS(C)=O.[Er+3]
inactive: [3] 98 % of control | [4] 103 % of control | [5] 101 % of control | [6] 98 % of control | [7] 96 % of control | [8] 103 % of control

Nc1ccccc1N=Cc1cc(F)ccc1[N+](=O)[O-]
inactive: dose: 100.0 mg/kg/injection, schedule: Q04DX003 (ip), vehicle: other 97 % of control | dose: 200.0 mg/kg/injection, schedule: Q04DX003 (ip), vehicle: other 102 % of control | dose: 400.0 mg/kg/injection, schedule: Q04DX003 (ip), vehicle: other 114 % of control

CCN(CC)CCNc1ccc(N=Nc2cnc3ccccc3c2)c2ccccc12
inactive: dose: 1.12 mg/kg/injection, schedule: Q01DX009 (ip), vehicle: other 98 % of control | dose: 2.25 mg/kg/injection, schedule: Q01DX009 (ip), vehicle: other 92 % of control | dose: 4.5 mg/kg/injection, schedule: Q01DX009 (ip), vehicle: other 93 % of control | dose: 9.0 mg/kg/injection, schedule: Q01DX009 (ip), vehicle: other 97 % of control | dose: 100.0 mg/kg/injection, schedule: Q01DX001 (ip), vehicle: other 91 % of control | dose: 200.0 mg/kg/injection, schedule: Q01DX001 (ip), vehicle: other 91 % of control | dose: 400.0 mg/kg/injection, schedule: Q01DX001 (ip), vehicle: other 97 % of control

COc1ccc2c(c1O)C13CCN(C)C(C2)C1CCC(O)C3 (stereo not given)
inactive: [9] 95 % of control | [4] 104 % of control | [10] 101 % of control | [6] 88 % of control | [11] 98 % of control | [8] 86 % of control

Fc1ccc(C=C2c3ccccc3-c3ccccc32)cc1
inactive: dose: 25.0 mg/kg/injection, schedule: Q04DX002 (ip), vehicle: gum acacia 109 % of control | dose: 50.0 mg/kg/injection, schedule: Q04DX002 (ip), vehicle: gum acacia 92 % of control | dose: 100.0 mg/kg/injection, schedule: Q04DX002 (ip), vehicle: gum acacia 92 % of control

CC(C)(C)C(=O)Nc1ccc(Cl)cc1C(=O)c1ccccc1
inactive: [12] 92 % of control and 110 % of control | [13] 93 % of control and 98 % of control | [14] 96 % of control and 100 % of control | [15] 93 % of control and 107 % of control | dose: 400.0 mg/kg/injection, schedule: Q01DX009 (ip), vehicle: saline with Tween-80 92 % of control and 95 % of control | [16] 107 % of control and 87 % of control

O=[N+]([O-])c1ccc(Cc2ccc([N+](=O)[O-])cc2)cc1
inactive: dose: 100.0 mg/kg/injection, schedule: Q04DX003 (ip), vehicle: saline with Tween-80 102 % of control | dose: 200.0 mg/kg/injection, schedule: Q04DX003 (ip), vehicle: saline with Tween-80 109 % of control | dose: 400.0 mg/kg/injection, schedule: Q04DX003 (ip), vehicle: saline with Tween-80 98 % of control

CCCCCCCCCCCC(=O)N/N=C(\C)c1cccc2ccccc12
inactive: [1] 92 % of control | [2] 96 % of control | [9] 88 % of control and 92 % of control

CC(C)(O)C#N
inactive: dose: 5.0 mg/kg/injection, schedule: Q01DX001 (ip), vehicle: saline 108 % of control | dose: 10.0 mg/kg/injection, schedule: Q01DX001 (ip), vehicle: saline 102 % of control | dose: 15.0 mg/kg/injection, schedule: Q01DX001 (ip), vehicle: saline 104 % of control

COc1cccc(C2CCCCC2O)c1 (stereo not given)
inactive: dose: 50.0 mg/kg/injection, schedule: Q01DX009 (ip), vehicle: saline with Tween-80 90 % of control | [12] 93 % of control | [14] 96 % of control

CCOC(=O)C(C(=S)Nc1ccccc1)=S(C)C
inactive: [13] 87 % of control | [15] 87 % of control | [16] 91 % of control

CCOc1ccccc1NC(=O)c1ccccc1Cl
inactive: [9] 102 % of control | [10] 108 % of control | [11] 93 % of control

CCCCCCCCCCCCSC(=O)Nc1ccc(C(=O)OCC)cc1
inactive: dose: 100.0 mg/kg/injection, schedule: Q04DX002 (ip), vehicle: Klucel (hydroxypropylcellulose) (HPC) 95 % of control | dose: 200.0 mg/kg/injection, schedule: Q04DX002 (ip), vehicle: Klucel (hydroxypropylcellulose) (HPC) 116 % of control | dose: 400.0 mg/kg/injection, schedule: Q04DX002 (ip), vehicle: Klucel (hydroxypropylcellulose) (HPC) 92 % of control

O=C(O)/C(=C\c1ccc([N+](=O)[O-])cc1)CCc1ccccc1
inactive: [9] 91 % of control | [10] 92 % of control | [11] 92 % of control

Oc1c(Cl)cc(Cl)cc1/C=N/N1CCN(/N=C/c2cc(Cl)cc(Cl)c2O)CC1
inactive: dose: 100.0 mg/kg/injection, schedule: Q01DX001 (ip), vehicle: saline 87 % of control | dose: 200.0 mg/kg/injection, schedule: Q01DX001 (ip), vehicle: saline 87 % of control

c1ccc2c(c1)NC1CCCCC21 (stereo not given)
inactive: [3] 90 % of control | [5] 97 % of control | [7] 93 % of control

COc1ccccc1OC
inactive: [17] 97 % of control | [18] 103 % of control | [19] 86 % of control

O=CNCC(=O)O
inactive: dose: 100.0 mg/kg/injection, schedule: Q04DX002 (ip), vehicle: saline 92 % of control | [17] 97 % of control | dose: 200.0 mg/kg/injection, schedule: Q04DX002 (ip), vehicle: saline 95 % of control | [18] 94 % of control | dose: 400.0 mg/kg/injection, schedule: Q04DX002 (ip), vehicle: saline 92 % of control | [19] 106 % of control
